We go through one molecule from paper PMC10394516, “The pharmacokinetic profile of brensocatib and its effect on pharmacodynamic biomarkers including NE, PR3, and CatG in various rodent species” (Frontiers in Pharmacology, 2023).

The subject of one assay is NE. Put plainly: PD recovery study, bone marrow NE activity, C57BL/6 mice. The conditions noted are these: for Percent change from vehicle NE: bone marrow. Type of assay: in vivo. As to the method:
A PD recovery study was performed in female C57BL/6 mice dosed BID for 8 consecutive days. Mice were dosed by oral gavage either with vehicle (0 mg/kg) or 5 mg/kg brensocatib (BID; 10 mg/kg/day). After 8 consecutive days of dosing, the animals were maintained without further treatment until prescribed sacrifice (days: 1, 3, 6, 8, and 10 days post final dose). Plasma was collected from animals during the first 24 h of dosing at −0.5 (half-hour prior to dosing), 1, 8, 9, and 24 h post initial dose. Note that the 8- and 24-h plasma samples were prior to the afternoon dose and prior to the second day dose, respectively. Plasma was used for PK analysis via LC-MS/MS. On prescribed days, animals were sacrificed, and the hind limb bones (femurs and tibias) were collected at necropsy for bone marrow analysis of NSP activities by kinetic enzymatic assays.
For the mice, each animal had the femurs and tibias of both hind limbs harvested. For the rat, the femur and tibia from a single hind limb per animal was harvested. Bones were kept on wet ice until processing for bone marrow collection. In brief, bone cutters were used to cut the epiphysis (knobby ends) off the long bones to expose the bone marrow filled cavity. Each bone cavity was then flushed with 5 mL/bone (mouse) or 10 mL/bone (rat) of ice-cold RPMI media through a […] and collected in a 50-mL conical tube. Cells were spun down at 2,500 × g at 4°C for 5 min and the supernatant was aspirated. After which, bone marrow cells were lysed with 1X red blood cell (RBC) lysis buffer (Abcam, ab204733) to eliminate contaminating RBCs and washed with PBS to remove any residual RBC lysis buffer. The resulting white blood cells (WBC) were subsequently lysed with 1% (v/v) Triton X-100 in PBS. Lysates were added to 96-well plates and stored at −80°C until NSP analyses.
Bone marrow lysates prepared as described above were diluted and plated onto 96-well assay plates to quantify NSP activities as described previously ([Basso et al., 2022]). Briefly, peptide substrates for NE (N-Methoxysuccinyl-Ala-Ala-Pro-Val-7-amido-4-methylcoumarin; Sigma; St. Louis, MO; Excitation/Emission at 350/450 nm), PR3 ((7-Methoxycoumarin-4-yl)acetyl-lysyl-(picolinoyl)-Tyr-Asp-Ala-Lys-Gly-Asp-N-3-(2-4-dinitrophenyl)-2-3-diaminopropyonyl-NH2); GenScript; Piscataway, NJ; Excitation/Emission at 340/430 nm), and CatG (N-Succinyl-Ala-Ala-Pro-Phe p nitroanilide; Sigma; Absorbance at 405 nm) were added at a final assay concentration of 100 μM, 40 μM, and 200 μM, respectively, and either fluorescence or absorbance was quantified using a Synergy microplate reader (BioTek; Winooski, VT). The specific NSP activity in each sample was calculated as the total activity minus the activity in the presence of a specific NSP inhibitor (if used), including elastase inhibitor (Abcam) for NE, sivelestat (Abcam) for PR3, and cathepsin G inhibitor I (Cayman Chemical; Ann Arbor, MI) for CatG. NSP concentrations were interpolated based on their activities relative to the standard curves created using active human NE protein (Sigma), active human PR3 protein (Sigma), and active human CatG protein (Sigma), respectively. Due to unavailability of commercial mouse and/or rat NE, PR3, and CatG proteins, the corresponding human proteins were used instead since their catalytic ability is considered to be conserved across species. A portion of each cell lysate sample was retained for protein quantification using a Pierce™ BCA Protein Assay Kit (Thermo Fisher). The NSP activities were normalized for the cell lysate protein concentrations.
The Pierce™ BCA Protein Assay Kit was used to measure the total protein of the samples after lysis to allow for subsequent normalization. The manufacturer’s instructions for use were followed when performing this assay on a portion of the sample lysates which were diluted in PBS, the same diluent as used for preparation of the standard. Plates were read on the Biotek Synergy plate reader with Gen5 software.

The test system of the next assay is PR3. More on the design: method as in Cipolla et al., 2023. As to conditions: Phase 2 trial in NCFBE (WILLOW); ref Cipolla et al., 2023; cited from earlier work.
The mark [1] stands for this setting: after 8 days of 5 mg/kg BID, curve fit with free min and max.

As to `Cn1c(=O)oc2ccc(-c3ccc(C[C@@H](C#N)NC(=O)[C@@H]4CNCCCO4)cc3)cc21` [brensocatib], in the assay with NE (setting [1]), the “Recovery: Time to reach 50% recovery, NE” value came out at 0.8 days. Also, in the assay with NE (setting [1]), the “Recovery: Time to reach 90% recovery, NE” value came out at 4.9 days. Further, in the assay on NE (setting [1]), the “Recovery: Time to reach 95% recovery, NE” value worked out at 5.6 days. Further, in the assay with NE (setting [1]), the “Recovery: Time to reach 100% recovery, NE” value came out at 6.6 days. Moreover, the “Percent change from vehicle NE” value in the assay with NE (1 day recovery after 8 days of 5 mg/kg BID) is recorded as −49% (p < 0.0001); in the assay with NE (3 days recovery after 8 days of 5 mg/kg BID), −4% (p = 0.9544); with NE (6 days recovery after 8 days of 5 mg/kg BID), −20% (p = 0.0067); in the assay on NE (8 days recovery after 8 days of 5 mg/kg BID), −2% (p = 0.9986); with NE (10 days recovery after 8 days of 5 mg/kg BID) it was “+15% (p = 0.0607)”. Also, in the assay on PR3, the “sputum PR3 activity” value is on record as “Dose-dependent reductions”.
